{"source": "patent US10131681B2", "about": "“Aminophosphinic derivatives that can be used in the treatment of pain” (PHARMALEADS, priority 2008, dated 2018)", "key": {"[1]": {"tested_on": "OF1 male mice", "experiment": "Plantar test, thermal hyperalgesia after partial ligation of the sciatic nerve", "type": "in vivo", "conditions": "50 mg/kg oral", "description": "(§1) This test was described in detail by A. B. Malmberg and A. I. Basbaum, Partial Sciatic nerve injury in the mouse as a model of neuropathic pain: behavioural and neuroanatomical correlates. Pain, (1998) 76, 215-222.\n(§2) It was performed on OF1 male mice (Charles River, n=39), weighing 18 to 20 g, by partial ligation of the sciatic nerve on the ipsilateral side. The animals are tested over a period of 3 to 26 days after the operation.\nThe hyperalgesia was measured according to the method described by K. Hargreaves et al., A new sensitive method for measuring thermal nociception in cutaneous hyperalgesia, Pain (1988), 32, 77-88, using the “Plantar test” device (Bioseb, France) as the heat source. The intensity of the nociceptive stimulus is calibrated at 8-10 s with an automatic cut-off time of 20 seconds. The mean heat-induced paw withdrawal was measured on the ipsilateral (damaged nerve) and contralateral (intact nerve) paws. Each measurement is made 3 times on each paw."}, "[2]": {"tested_on": "OF1 male mice", "experiment": "Von Frey test, mechanical allodynia after partial ligation of the sciatic nerve", "type": "in vivo", "description": "as §1, §2\nThe mechanical allodynia is measured as described by S. R. Chaplan et al., Quantitative assessment of tactile allodynia in the rat paw, J. Neurosci. Meth. (1994), 53, 55-63. The ipsilateral (lesion) and contralateral (control) paws are tested as above, the mechanical anti-allodynia effect being measured using the Von Frey method (Malmerg A. B. and Basbaum A. I., 1998, Pain, 76, 215-222) with filaments of increasing size likewise applying an increasing pressure."}, "[3]": {"tested_on": "OF1 male mice", "experiment": "Formalin test (phase I), paw licking after oral administration", "type": "in vivo", "description": "A/ Formalin Test (Phase I)\nThe molecules were studied at one time (90 min) for comparative tests and at two times, 90 and 150 minutes, so as to observe the period of action thereof.\nThe animals (OF1 male mice) were obtained from the Charles River breeding centre (France) and weighed […] at the start of the experiment. The weight of each mouse is taken into account for the administration of the product.\nThe test is based on the protocol described by S. HUNSKAAR et al., Formalin test in mice, a useful technique for evaluating mild analgesics, J. Neurosci. Methods (1995), 14, 69-75. The early part of the test ([…] after injecting formalin), is considered to reflect […], which is under study.\nThe mice (n=8) are placed individually in a transparent container (50×25 cm^2) and are acclimatised to this environment for 20 minutes. […] Each mouse is then immediately returned to the test container and pain (nociceptive) responses are measured for 5 minutes (early phase). Only the number of times the paw is licked is counted. […]\nThe analgesic action of the product is measured by the decline in the number of times the injured paw is licked, compared to the number of times the animal receiving the vehicle only licks its paw. The total (discontinuous) licking time, expressed in seconds for each mouse, is counted for […]. […]"}, "[4]": {"experiment": "Stability in solution of a prior art pro-drug in a parenteral vehicle, followed by HPLC", "type": "physicochemical", "conditions": "ethanol/cremophor/H2O mixture (1:1:8)", "description": "The study in solution of a compound according to the prior art was conducted as follows:\nThe compound according to the prior art is placed in solution in various mixtures used for parenteral administration, the solution subsequently being followed by HPLC (Kromasil C18 4.5*250 mm column, 50% CH3CN (0.1% TFA)/50% H2O (0.1% TFA)) to determine the composition of the solution. In any case, the formation of both products, free phosphonic acid (active compound) and the transfer product, is observed over time as illustrated in the diagram below: […]"}}}
{"smiles": "CC(OC(=O)N[C@@H](C)P(=O)(O)C[C@@H](Cc1ccc(-c2ccccc2)cc1)C(=O)N[C@@H](C)C(=O)OCc1ccccc1)OC(=O)C(C)C", "note": "(some centres unmarked) [Example 3, 2-(2-biphenyl-4-ylmethyl-3-{hydroxy-[1-(1-isobutyryloxy-ethoxycarbonylamino)-ethyl]-phosphinoyl}-propionylamino)-propionic acid benzyl ester]", "values": [{"measurement": "time of peak anti-hyperalgesia effect", "setting": "[1]", "result": 90, "unit": "min"}, {"measurement": "paw withdrawal, mean of contralateral paws", "setting": "[1]; 90 min, 14 days after surgery, contralateral paw", "result": 9.4, "unit": "s"}, {"measurement": "reduction in thermal hyperalgesia", "setting": "[1]; period 45-120 min, ipsilateral paw", "result": "65-100%"}, {"measurement": "time of peak anti-allodynia effect", "setting": "[2]; 50 mg/kg oral", "result": 60, "unit": "min"}, {"measurement": "long-term anti-allodynia effect", "setting": "[2]; 50 mg/kg oral, 45-120 min", "result": "significant"}, {"measurement": "anti-allodynia effect at peak, % of the peak response (untreated control)", "setting": "[2]; 50 mg/kg oral, 60 min", "result": 75, "unit": "%"}]}
{"smiles": "CC(OC(=O)N[C@@H](C)P(=O)(O)C[C@@H](Cc1ccc(-c2ccccc2)cc1)C(=O)N[C@@H](C)C(=O)O)OC(=O)C(C)C", "note": "(some centres unmarked) [Example 4, 2-(2-biphenyl-4-ylmethyl-3-{hydroxy-[1-(1-isobutyryloxy-ethyloxycarbonylamino)-ethyl]-phosphinoyl}-propionylamino)-propionic acid]", "values": [{"measurement": "anti-allodynia effect used alone", "setting": "[2]; 10 mg/kg oral, 60 min", "result": "inactive"}]}
{"smiles": "CCOC(=O)OC(C)OC(=O)[C@H](C)NC(=O)[C@H](Cc1ccc(-c2ccccc2)cc1)CP(=O)(O)[C@H](C)NC(=O)OC(C)OC(=O)C(C)C", "note": "(some centres unmarked) [Example 8, 2-(2-biphenyl-4-ylmethyl-3-{hydroxy-[1-(1-isobutyryloxy-ethoxycarbonylamino)-ethyl]-phosphinoyl}-propionylamino)-propionic acid 1-ethoxycarbonyloxyethyl ester]", "values": [{"measurement": "analgesic activity at 90 minutes", "setting": "[3]; 50 mg/kg per os", "result": "very significant analgesic activity"}]}
{"smiles": "NCC1(CC(=O)O)CCCCC1", "note": "[gabapentin, reference compound]", "values": [{"measurement": "anti-allodynia effect used alone", "setting": "[2]; 30 mg/kg oral, 60 min", "result": "inactive"}]}
{"smiles": "CCOC(=O)[C@H](C)NC(=O)[C@H](Cc1ccc(-c2ccccc2)cc1)CP(=O)(OC(C)OC(=O)C(C)C)[C@H](C)N", "note": "(some centres unmarked) [prior art compound]", "values": [{"measurement": "% initial compound", "setting": "[4]; 0 hrs after solubilisation", "result": 90.5, "unit": "%"}, {"measurement": "% initial compound", "setting": "[4]; 3 hrs after solubilisation", "result": 82.0, "unit": "%"}, {"measurement": "% initial compound", "setting": "[4]; 6 hrs after solubilisation", "result": 75.7, "unit": "%"}, {"measurement": "% initial compound", "setting": "[4]; 96 hrs after solubilisation", "result": 25.1, "unit": "%"}]}
{"smiles": "CCOC(=O)OC(C)OC(=O)[C@H](C)NC(=O)[C@H](Cc1ccc(-c2ccccc2)cc1)CP(=O)(O)[C@H](C)N.O=CO", "note": "(some centres unmarked) [reference molecule, reference compound]", "values": [{"measurement": "analgesic activity at 90 minutes", "setting": "[3]; 100 mg/kg per os", "result": "no activity"}]}
